Columns and labels:
[1] = Therapeutic ratio of ED50 of catalepsy in rats to ED50 of climbing in mouse; format: ADME, organism-based; settings: rat and mouse, in vivo
[2] = species: Rattus norvegicus; experiment: Cataleptogenic activity was evaluated for the compound as the 50% effective dose required to induce cataleptic effect in rats; format: functional
[3] = system: Mus musculus; experiment: Neuroleptic activity determined by its inhibitory effect on apomorphine-induced climbing behavior in mice by peroral administration in experiment 1.Range is 0.02-0.42; format: functional; settings: po
[4] = system: Mus musculus; experiment: Neuroleptic activity determined by its inhibitory effect on apomorphine-induced climbing behavior in mice by intraperitoneal administration in experiment 2. Range is 0.11-0.41; format: functional; settings: ip
[5] = molecular target: T1, D(2) dopamine receptor (Bos taurus, UniProt P20288); experiment: Displacement of [3H]spiroperidol from bovine caudate nucleus membrane Dopamine receptor D2
T1 sequence (P20288 whole entry): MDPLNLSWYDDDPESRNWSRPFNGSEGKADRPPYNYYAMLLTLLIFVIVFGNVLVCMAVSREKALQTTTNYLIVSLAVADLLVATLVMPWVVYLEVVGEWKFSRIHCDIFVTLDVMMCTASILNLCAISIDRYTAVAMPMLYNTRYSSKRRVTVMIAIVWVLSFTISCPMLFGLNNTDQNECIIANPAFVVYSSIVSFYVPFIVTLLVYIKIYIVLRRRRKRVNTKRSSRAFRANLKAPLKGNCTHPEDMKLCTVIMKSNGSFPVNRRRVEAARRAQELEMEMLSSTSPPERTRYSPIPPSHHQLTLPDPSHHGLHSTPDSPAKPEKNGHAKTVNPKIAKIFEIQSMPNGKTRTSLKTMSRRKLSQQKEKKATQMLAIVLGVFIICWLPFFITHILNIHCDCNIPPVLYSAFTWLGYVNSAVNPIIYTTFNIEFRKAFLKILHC

[6] = molecular target: Dopamine receptor (Mus musculus) (UniProt P51436+Q8BLD9+Q61616+P61168+P30728); experiment: Neuroleptic activity determined by its inhibitory effect on apomorphine-induced climbing behavior in mice by intraperitoneal administration; format: functional, organism-based
[7] = Therapeutic ratio of ED50 of catalepsy to ED50 of climbing in […]; format: ADME
[8] = molecular target: T1, D(2) dopamine receptor; experiment: Binding affinity towards dopamine receptor D2 was determined by displacement of [3H]spiroperidol from bovine nucleus caudate membranes.
[9] = system: Mus musculus; experiment: Neuroleptic activity determined by its inhibitory effect on apomorphine-induced climbing behavior in mice by intraperitoneal administration. Range is 0.019-0.092; format: functional; settings: ip
[10] = system: Mus musculus; experiment: Neuroleptic activity determined by its inhibitory effect on apomorphine-induced climbing behavior in mice by intraperitoneal administration. Range is 0.008-0.766; format: functional; settings: ip
[11] = system: Mus musculus; experiment: Neuroleptic activity determined by its inhibitory effect on apomorphine-induced climbing behavior in mice by intraperitoneal administration. Range is 0.03-0.064; format: functional; settings: ip
[12] = system: Mus musculus; experiment: Neuroleptic activity determined by its inhibitory effect on apomorphine-induced climbing behavior in mice by intraperitoneal administration. Range is 0.040-0.075; format: functional; settings: ip
[13] = species: Mus musculus; experiment: animal or person; settings: ip
Description: Neuroleptic activity determined by its inhibitory effect on apomorphine-induced climbing behavior in mice by intraperitoneal administration in experiment 2 Range is 0.05-0.17

[14] = system: Mus musculus; experiment: Neuroleptic activity determined by its inhibitory effect on apomorphine-induced climbing behavior in mice by intraperitoneal administration. Range is 0.007-0.029; format: functional; settings: ip
[15] = system: Mus musculus; experiment: Neuroleptic activity determined by its inhibitory effect on apomorphine-induced climbing behavior in mice by intraperitoneal administration. Range is 0.007-0.250; format: functional; settings: ip
[16] = system: Mus musculus; experiment: Neuroleptic activity determined by its inhibitory effect on apomorphine-induced climbing behavior in mice by intraperitoneal administration. Range is between 0.035-0.192; format: functional; settings: ip
[17] = system: Mus musculus; experiment: Neuroleptic activity determined by its inhibitory effect on apomorphine-induced climbing behavior in mice by intraperitoneal administration. Range is 0.071-0.206; format: functional; settings: ip
[18] = system: Mus musculus; experiment: Neuroleptic activity determined by its inhibitory effect on apomorphine-induced climbing behavior in mice by intraperitoneal administration. Range is between 0.009-0.037; format: functional; settings: ip
[19] = system: Mus musculus; experiment: Neuroleptic activity determined by its inhibitory effect on apomorphine-induced climbing behavior in mice by intraperitoneal administration. Range is 0.009-0.109; format: functional; settings: ip
[20] = system: Mus musculus; experiment: Neuroleptic activity determined by its inhibitory effect on apomorphine-induced climbing behavior in mice by peroral administration; format: functional; settings: po
[21] = system: Mus musculus; experiment: Neuroleptic activity determined by its inhibitory effect on apomorphine-induced climbing behavior in mice by intraperitoneal administration. Range is 0.037-0.256; format: functional; settings: ip
[22] = system: Mus musculus; experiment: Neuroleptic activity determined by its inhibitory effect on apomorphine-induced climbing behavior in mice by intraperitoneal administration. Range is between 0.0033-0.278; format: functional; settings: ip

Row | Structure (SMILES) | ED50 [2] [mg/kg] | ED50 [6] [mg/kg] | other results
1 | O=c1[nH]c2cc(Cl)ccc2n1C1CCN(CC2COc3ccccc3O2)CC1 (configuration not stated) [AXAMOZIDE] | > 40 |  | selectivity ratio [1]: > 444; ED50 [3]: 0.09 mg/kg; ED50 [4]: 0.21 mg/kg; Ki [5]: 30 nM
2 | Cc1ccc2c(c1)nc(O)n2C1CCN(CC2COc3ccc(Cl)cc3O2)CC1 (configuration not stated) | 1 | 0.093 | selectivity ratio [7]: 11; Ki [8]: 30 nM
3 | Cc1cccc2c1OCC(CN1CCC(n3c(O)nc4cc(Cl)ccc43)CC1)O2 (configuration not stated) |  | 1.3 | 
4 | Cc1cccc2c1OCC(CN1CCC(n3c(O)nc4cc(F)ccc43)CC1)O2 (configuration not stated) | 8 |  | selectivity ratio [1]: 186; ED50 [9]: 0.043 mg/kg; Ki [5]: 8 nM
5 | Cc1c(Cl)ccc2nc(O)n(C3CCN(CC4COc5ccc(F)cc5O4)CC3)c12 (configuration not stated) |  | > 25 | 
6 | Cc1ccc2c(c1)nc(O)n2C1CCN(CC2COc3cc(C)c(C)cc3O2)CC1 (configuration not stated) | 10 |  | selectivity ratio [1]: 126; Ki [5]: 45 nM; ED50 [10]: 0.079 mg/kg
7 | Oc1nc2cc(-c3ccccc3)ccc2n1C1CCN(CC2COc3ccccc3O2)CC1 (configuration not stated) |  | > 25 | 
8 | Oc1nc2cc(Cl)ccc2n1C1CCN(CC2COc3cc(Cl)c(Cl)cc3O2)CC1 (configuration not stated) |  | 6 | 
9 | Oc1nc2cc(F)ccc2n1C1CCN(CC2COc3ccc(Cl)cc3O2)CC1 (configuration not stated) |  |  | ED50 [11]: 0.044 mg/kg
10 | Cc1cc2c(cc1C)OC(CN1CCC(n3c(O)nc4cc(F)ccc43)CC1)CO2 (configuration not stated) | > 20 |  | selectivity ratio [1]: > 363; Ki [5]: 25 nM; ED50 [12]: 0.055 mg/kg
11 | Oc1nc2ccc(Cl)cc2n1C1CCN(CC2COc3ccccc3O2)CC1 (configuration not stated) |  | 0.11 | 
12 | Cc1c(Cl)ccc2nc(O)n(C3CCN(CC4COc5ccccc5O4)CC3)c12 (configuration not stated) |  | 10 | 
13 | CC(C)(C)c1ccc2c(c1)nc(O)n2C1CCN(CC2COc3ccccc3O2)CC1 (configuration not stated) |  | > 25 | 
14 | Oc1nc2cc(Cl)c(Cl)cc2n1C1CCN(CC2COc3ccccc3O2)CC1 (configuration not stated) |  | 0.45 | 
15 | O=C(CCCN1CCC(O)(c2ccc(Cl)cc2)CC1)c1ccc(F)cc1 [HALOPERIDOL] | 0.5 |  | ED50 [13]: 0.09 mg/kg
16 | Cc1ccc2c(c1)nc(O)n2C1CCN(CC2COc3ccc(F)cc3O2)CC1 (configuration not stated) | 2.5 |  | ED50 [14]: 0.014 mg/kg; selectivity ratio [1]: 187; Ki [5]: 150 nM
17 | Oc1nc2cccnc2n1C1CCN(CC2COc3ccccc3O2)CC1 (configuration not stated) |  | > 10 | 
18 | Oc1nc2ccc(Cl)cc2n1C1CCN(CC2COc3ccc(F)cc3O2)CC1 (configuration not stated) |  | 0.16 | 
19 | Oc1nc2cc(F)ccc2n1C1CCN(CC2COc3cc(Cl)c(Cl)cc3O2)CC1 (configuration not stated) |  | 5.5 | 
20 | O=c1[nH]c2cc(F)ccc2n1C1CCN(CC2COc3cc(F)ccc3O2)CC1 (configuration not stated) |  |  | selectivity ratio [1]: < 8; Ki [5]: 70 nM
21 | Nc1ccc2c(c1)nc(O)n2C1CCN(CC2COc3ccccc3O2)CC1 (configuration not stated) |  | 3.9 | 
22 | Oc1nc2cccnc2n1C1CCN(CC2COc3ccc(F)cc3O2)CC1 (configuration not stated) |  | > 25 | 

Row | Structure (SMILES) | ED50 [2] [mg/kg] | ED50 [6] [mg/kg] | other results
23 | Cc1ccc2c(c1)nc(O)n2C1CCN(CC2COc3ccccc3O2)CC1 (configuration not stated) | 40 |  | ED50 [15]: 0.013 mg/kg; selectivity ratio [1]: 3080; Ki [5]: 120 nM
24 | Oc1nc2cccc(Cl)c2n1C1CCN(CC2COc3ccc(F)cc3O2)CC1 (configuration not stated) |  | > 25 | 
25 | CCc1ccc2c(c1)nc(O)n2C1CCN(CC2COc3ccccc3O2)CC1 (configuration not stated) |  | 0.17 | 
26 | Oc1nc2cc(Cl)c(Cl)cc2n1C1CCN(CC2COc3ccc(F)cc3O2)CC1 (configuration not stated) |  | 1.4 | 
27 | Oc1nc2cccc(Cl)c2n1C1CCN(CC2COc3ccccc3O2)CC1 (configuration not stated) |  | > 20 | 
28 | Oc1nc2cc(Br)ccc2n1C1CCN(CC2COc3ccccc3O2)CC1 (configuration not stated) | 20 |  | selectivity ratio [1]: 244; ED50 [16]: 0.082 mg/kg; Ki [5]: 70 nM
29 | Oc1nc2cc(Cl)ccc2n1C1CCN(CC2COc3cc(F)ccc3O2)CC1 (configuration not stated) |  | 0.2 | 
30 | Cc1ccc2c(c1)OCC(CN1CCC(n3c(O)nc4cc(Cl)ccc43)CC1)O2 (configuration not stated) | 20 |  | selectivity ratio [1]: 165; Ki [5]: 60 nM; ED50 [17]: 0.121 mg/kg
31 | Oc1nc2cc(F)ccc2n1C1CCN(CC2COc3ccccc3O2)CC1 (configuration not stated) |  |  | ED50 [18]: 0.019 mg/kg
32 | Oc1nc2cc(F)ccc2n1C1CCN(CC2COc3cc(F)ccc3O2)CC1 (configuration not stated) | < 5 | 0.63 | 
33 | Cc1ccc2c(c1)OCC(CN1CCC(n3c(O)nc4cc(C)ccc43)CC1)O2 (configuration not stated) | 6 |  | selectivity ratio [1]: 188; Ki [5]: 40 nM; ED50 [19]: 0.032 mg/kg
34 | Oc1nc2cc(C(F)(F)F)ccc2n1C1CCN(CC2COc3ccc(F)cc3O2)CC1 (configuration not stated) |  | > 10 | 
35 | Oc1nc2cc(Cl)ccc2n1C1CCN(CC2COc3ccc(F)cc3O2)CC1 (configuration not stated) |  |  | ED50 [20]: 0.14 mg/kg
36 | Cc1cc2c(cc1C)OC(CN1CCC(n3c(O)nc4cc(Cl)ccc43)CC1)CO2 (configuration not stated) |  | 0.8 | 
37 | Oc1nc2cc(Cl)ccc2n1C1CCN(CC2COc3ccc(Cl)cc3O2)CC1 (configuration not stated) |  | 0.75 | 
38 | Oc1nc2cc(F)ccc2n1C1CCN(CC2COc3ccc(F)cc3O2)CC1 (configuration not stated) | 20 |  | selectivity ratio [1]: 204; ED50 [21]: 0.098 mg/kg
39 | Oc1nc2ccccc2n1C1CCN(CC2COc3ccccc3O2)CC1 (configuration not stated) |  | 0.7 | 
40 | COc1ccc2c(c1)nc(O)n2C1CCN(CC2COc3ccccc3O2)CC1 (configuration not stated) | 1 |  | selectivity ratio [1]: 104; ED50 [22]: 0.0096 mg/kg; Ki [5]: 150 nM
41 | Cc1ccc2c(c1)nc(O)n2C1CCN(CC2COc3cc(F)ccc3O2)CC1 (configuration not stated) |  | 0.5 | 
42 | Oc1nc2cc(C(F)(F)F)ccc2n1C1CCN(CC2COc3ccccc3O2)CC1 (configuration not stated) |  | > 10 | 
43 | Cc1ccc2c(c1)nc(O)n2C1CCN(CC2COc3cc(Cl)c(Cl)cc3O2)CC1 (configuration not stated) |  | 3.6 | 
